Measurements from patent US20180055020A1, “Mice With Transgene Of iBox Peptide Inhibitor Of Group B p21-Activated Kinases” (Institute For Cancer Research d/b/a The Research Institute …, priority 2016, published 2018).

Columns and labels:
Type in all cases: cell-based, mouse
Src = assay: Immunoblot of lysates of ROSA26-iBox MEFs for signaling molecules (Src and P-Src); details: lysates of MEFs expressing iBox (Adeno-Cre), FIG. 5D
Method: (§1) Primary mouse embryo fibroblasts were established from E14 embryos from pregnant ROSA26-iBox mice. Cell lines were maintained in DMEM medium supplemented with 10% of FBS, 2 mM L-glutamine and 100 Um′ penicillin/streptomycin ay 37° C. in a humidified 5% CO2 incubator. To document iBox and EGFP expression, the MEFs were transduced with Adeno-Cre which removes the LSL cassette. MEFs were imaged to documents EGFP expression and lysates were probed by immunoblot to document iBox expression using anti-GST antibodies that recognize the GST protein that is fused to the N-terminus of iBox. These lysates were also probed with antibodies against Erk and P-Erk, Src and P-Src, Fak and P-Fak, as well as GAPDH.
(§2) To analyze endogenous Pak4 activity, Pak4 was immunoprecipitated from ROSA26-iBox MEFs and Protein-A-Pak4 beads were incubated with recombinant Pacsin or CRTC1 for 10 minutes at 30° C. in a buffer containing 50 mM Tris-HCl, pH 7.5, 10 mM MgCl2, 1 mM DTT, and 50 μM ATP. Reactions were terminated with hot 6×SDS/PAGE buffer and the samples were analyzed by immunoblot using anti-P-pacsin or anti-P-CRTC1 antibodies. […] Inhibition of Erk, Src, and Fak was observed.

Fak = assay: Immunoblot of lysates of ROSA26-iBox MEFs for signaling molecules (Fak and P-Fak); details: lysates of MEFs expressing iBox (Adeno-Cre), FIG. 5D
Method: as §1, §2

[1] = test system: each of the tissues studied; assay: Cell proliferation on expression of the iBox transgene (preliminary experiments)
Method: Cells were plated at 2×10^3 in 96-well plates and 10 μl of 3-[4,5-dimethylthiazol-2-yl]-2,5-diphenyl tetrazolium bromide (MTT) solution was added to each well to a final concentration of 0.5 mg/ml. The reaction was stopped after 4 hours at 37° C. by adding 100 μl of solubilization solution (10% SDS in 0.01M HCl) and the samples were analyzed at 595 nm on Perkin Elmer Envision plate reader. Triplicates were performed for each sample, and experiments were performed on three occasions. […] An anti-Gst blot is shown.

Erk = assay: Immunoblot of lysates of ROSA26-iBox MEFs for signaling molecules (Erk and P-Erk); details: lysates of MEFs expressing iBox (Adeno-Cre), FIG. 5D
Method: as §1, §2

For “iBox: Peptide inhibitor of Group B Paks, derived from amino acids 166 to 203 of human INKA-1, linked to GST, expressed from a transgene (GLEAEDWTAALLNRGRSRQPLVLGDNCFADLVHNWMEL; GST fusion; UniProt Q96EL1 166-203, looked up, fragment)”, the “effect on Src signaling (immunoblot)” value (Src) was “Inhibition”, the “effect on Fak signaling (immunoblot)” value (Fak) was “Inhibition” and the “effect of iBox transgene expression on cell proliferation” value [1] was “inhibited cell proliferation”. For the same substance, the “effect on Erk signaling (immunoblot)” value (Erk) was “Inhibition”.
